Measured values reported in patent US12662465B2, “EGFR inhibitors” (Blueprint Medicines Corporation, priority 2021, dated 2026).
Where two headings read alike, the source gives them in different places.

Legend:
EGFR L858R = biological target: T1, EGFR L858R (Homo sapiens, UniProt P00533, L858R); assay: Biochemical EGFR inhibition assay (Caliper mobility shift), EGFR L858R; settings: read-out: Enz EGFR_L858R IC50
T1 construct: purchased SignalChem E10-122BG

EGFR (d746-750) = biological target: T2, EGFR (d746-750) (Homo sapiens, UniProt P00533, DEL746-750); assay: Biochemical EGFR inhibition assay (Caliper mobility shift), EGFR (d746-750); settings: read-out: Enz EGFR_Exon19-del746-750 IC50
T2 construct: purchased SignalChem E10-122JG
T2 sequence (P00533 with tags, fused parts or gaps DEL746-750 limits assumed): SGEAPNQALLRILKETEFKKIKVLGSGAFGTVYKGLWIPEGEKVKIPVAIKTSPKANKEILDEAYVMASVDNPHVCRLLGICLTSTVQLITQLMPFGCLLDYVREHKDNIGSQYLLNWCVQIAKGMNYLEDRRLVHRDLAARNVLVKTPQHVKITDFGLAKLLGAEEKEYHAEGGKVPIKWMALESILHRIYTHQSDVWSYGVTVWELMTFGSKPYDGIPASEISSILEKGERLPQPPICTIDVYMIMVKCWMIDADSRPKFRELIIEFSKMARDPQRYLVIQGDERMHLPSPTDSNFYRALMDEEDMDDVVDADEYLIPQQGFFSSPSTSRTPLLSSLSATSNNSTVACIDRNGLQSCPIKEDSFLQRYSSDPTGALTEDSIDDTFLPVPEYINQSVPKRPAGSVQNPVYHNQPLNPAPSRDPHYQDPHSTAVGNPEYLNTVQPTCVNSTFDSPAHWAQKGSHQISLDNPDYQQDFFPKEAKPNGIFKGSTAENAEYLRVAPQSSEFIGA

[1] = biological target: intracellular phosphorylation of EGFR (Tyr1068) in PC-9 cells (Ex19Del) (Homo sapiens, UniProt P00533, DEL746-750); assay: PC-9 pEGFR AlphaLISA assay; format: cell-based; settings: 4 hours compound incubation, read-out: Ext pEGFR_PC-9 Ex19Del IC50
Chain of intracellular phosphorylation of EGFR (Tyr1068) in PC-9 cells (Ex19Del) (P00533 with tags, fused parts or gaps DEL746-750): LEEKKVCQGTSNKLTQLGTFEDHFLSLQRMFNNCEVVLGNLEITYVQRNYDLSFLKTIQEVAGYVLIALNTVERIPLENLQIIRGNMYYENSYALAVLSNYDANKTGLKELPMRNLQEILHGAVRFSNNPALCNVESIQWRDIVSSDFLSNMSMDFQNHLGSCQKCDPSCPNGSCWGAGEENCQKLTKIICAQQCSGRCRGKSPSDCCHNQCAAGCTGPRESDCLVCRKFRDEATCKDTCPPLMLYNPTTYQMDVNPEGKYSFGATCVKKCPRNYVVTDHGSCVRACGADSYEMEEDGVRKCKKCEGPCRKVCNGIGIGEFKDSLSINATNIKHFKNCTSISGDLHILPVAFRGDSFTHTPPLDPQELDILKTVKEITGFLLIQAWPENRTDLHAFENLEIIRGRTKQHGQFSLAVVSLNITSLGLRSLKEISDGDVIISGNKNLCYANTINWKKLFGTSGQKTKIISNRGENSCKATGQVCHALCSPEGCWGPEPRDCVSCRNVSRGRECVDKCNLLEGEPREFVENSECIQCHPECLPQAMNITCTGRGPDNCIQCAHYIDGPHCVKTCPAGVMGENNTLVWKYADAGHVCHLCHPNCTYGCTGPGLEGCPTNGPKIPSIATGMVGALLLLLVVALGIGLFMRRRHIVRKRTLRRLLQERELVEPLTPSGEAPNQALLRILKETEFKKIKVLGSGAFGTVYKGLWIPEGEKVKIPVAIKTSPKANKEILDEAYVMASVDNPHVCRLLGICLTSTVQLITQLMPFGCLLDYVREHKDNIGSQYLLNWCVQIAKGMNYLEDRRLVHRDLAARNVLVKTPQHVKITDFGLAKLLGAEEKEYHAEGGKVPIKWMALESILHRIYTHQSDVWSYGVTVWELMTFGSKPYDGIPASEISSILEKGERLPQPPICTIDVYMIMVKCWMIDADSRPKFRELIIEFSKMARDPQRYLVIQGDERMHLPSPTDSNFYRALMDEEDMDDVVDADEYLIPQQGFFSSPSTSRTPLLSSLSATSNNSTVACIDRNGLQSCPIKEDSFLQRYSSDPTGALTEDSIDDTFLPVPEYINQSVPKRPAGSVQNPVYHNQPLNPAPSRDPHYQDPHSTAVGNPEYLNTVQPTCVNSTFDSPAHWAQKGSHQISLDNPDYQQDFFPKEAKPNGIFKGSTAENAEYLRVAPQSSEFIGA

[2] = 1.0 mM ATP or ATP Km, room temperature (25° C.)

T1 sequence (P00533 25-1210 L858R): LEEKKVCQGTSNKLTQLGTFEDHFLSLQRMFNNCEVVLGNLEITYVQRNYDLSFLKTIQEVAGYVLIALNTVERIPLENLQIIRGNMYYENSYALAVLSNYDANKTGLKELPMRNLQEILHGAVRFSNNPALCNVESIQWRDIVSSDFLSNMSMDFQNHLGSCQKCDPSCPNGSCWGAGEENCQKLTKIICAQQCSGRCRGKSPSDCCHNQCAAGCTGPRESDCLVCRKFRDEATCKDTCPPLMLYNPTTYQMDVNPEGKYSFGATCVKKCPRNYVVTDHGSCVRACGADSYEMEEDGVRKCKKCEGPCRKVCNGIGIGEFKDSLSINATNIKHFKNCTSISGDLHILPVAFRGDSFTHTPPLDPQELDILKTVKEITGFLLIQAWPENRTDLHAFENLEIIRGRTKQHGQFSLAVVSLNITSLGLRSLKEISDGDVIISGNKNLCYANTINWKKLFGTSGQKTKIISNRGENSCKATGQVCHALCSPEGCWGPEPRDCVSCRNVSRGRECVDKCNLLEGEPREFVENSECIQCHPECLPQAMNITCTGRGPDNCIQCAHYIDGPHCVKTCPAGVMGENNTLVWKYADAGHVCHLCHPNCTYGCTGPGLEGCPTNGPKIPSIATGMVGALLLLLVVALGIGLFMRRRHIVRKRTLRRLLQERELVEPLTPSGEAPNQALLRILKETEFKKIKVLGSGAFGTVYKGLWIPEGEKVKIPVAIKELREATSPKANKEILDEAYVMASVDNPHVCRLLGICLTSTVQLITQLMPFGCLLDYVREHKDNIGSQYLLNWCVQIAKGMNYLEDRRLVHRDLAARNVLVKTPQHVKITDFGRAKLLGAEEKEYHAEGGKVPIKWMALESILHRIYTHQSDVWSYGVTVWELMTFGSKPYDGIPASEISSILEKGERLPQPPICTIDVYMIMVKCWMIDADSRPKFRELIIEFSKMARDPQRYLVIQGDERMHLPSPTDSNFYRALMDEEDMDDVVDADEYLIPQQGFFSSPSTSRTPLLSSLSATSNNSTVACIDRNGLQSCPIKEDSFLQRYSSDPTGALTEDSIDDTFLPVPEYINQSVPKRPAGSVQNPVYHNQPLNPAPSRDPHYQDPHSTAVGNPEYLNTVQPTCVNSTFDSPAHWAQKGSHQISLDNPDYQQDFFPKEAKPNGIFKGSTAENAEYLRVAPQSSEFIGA

IC50 (EGFR L858R)	IC50 (EGFR (d746-750))	IC50 [1]	IC50 (EGFR L858R; [2])	IC50 (EGFR (d746-750); [2])	SMILES
10.1 to 50 nM	< 10 nM	10.1 to 50 nM			C[C@H](CN(C)C)Oc1cc(-c2cnn(C)c2)cc2ncnc(Nc3ccc4cccnc4c3F)c12 [Example 108, (R)-5-((1-(dimethylamino)propan-2-yl)oxy)-N-(8-fluoroquinolin-7-yl)-7-(1-methyl-1H-pyrazol-4-yl)quinazolin-4-amine]
		≤ 10 nM	< 10 nM	< 10 nM	C[C@H](Oc1cc(-c2cnn(C)c2)cc2ncnc(Nc3ccc4ncccc4c3F)c12)C1COC1 (single isomer, unassigned) [Example 2, (S)—N-(5-fluoroquinolin-6-yl)-7-(1-methyl-1H-pyrazol-4-yl)-5-(1-(oxetan-3-yl)ethoxy)quinazolin-4-amine or (R)—N-(5-fluoroquinolin-6-yl)-7-(1-methyl-1H-pyrazol-4-yl)-5-(1-(oxetan-3-yl)ethoxy)quinazolin-4-amine]
< 10 nM	< 10 nM	≤ 10 nM			C[C@@H](Oc1cc(-c2cnn(C)c2)cc2ncnc(Nc3c(F)cc4ncccc4c3F)c12)C1COC1 [Example 8, (R)—N-(5,7-difluoroquinolin-6-yl)-7-(1-methyl-1H-pyrazol-4-yl)-5-(1-(oxetan-3-yl)ethoxy)quinazolin-4-amine]
		≤ 10 nM	< 10 nM	< 10 nM	C[C@H](CN(C)C)Oc1cc(-c2cnn(C)c2)cc2ncnc(Nc3ccc4ncccc4c3F)c12 (single isomer, unassigned) [Example 5, (R)-5-((1-(dimethylamino)propan-2-yl)oxy)-N-(5-fluoroquinolin-6-yl)-7-(1-methyl-1H-pyrazol-4-yl)quinazolin-4-amine or (S)-5-((1-(dimethylamino)propan-2-yl)oxy)-N-(5-fluoroquinolin-6-yl)-7-(1-methyl-1H-pyrazol-4-yl)quinazolin-4-amine]
		≤ 10 nM	< 10 nM	< 10 nM	C[C@H](Oc1cc(-c2cnn(C)c2)cc2ncnc(Nc3ccc4ncccc4c3F)c12)C(=O)N1CCOCC1 (single isomer, unassigned) [Example 139, (S)-2-((4-((5-fluoroquinolin-6-yl)amino)-7-(1-methyl-1H-pyrazol-4-yl)quinazolin-5-yl)oxy)-1-morpholinopropan-1-one or (R)-2-((4-((5-fluoroquinolin-6-yl)amino)-7-(1-methyl-1H-pyrazol-4-yl)quinazolin-5-yl)oxy)-1-morpholinopropan-1-one]
< 10 nM	< 10 nM	≤ 10 nM			CC(CN(C)C)Oc1cc(-c2cnn(C)c2)cc2ncnc(Nc3ccc4ncccc4c3)c12 (racemic) [Example 42, (R)-5-((1-(dimethylamino)propan-2-yl)oxy)-7-(1-methyl-1H-pyrazol-4-yl)-N-(quinolin-6-yl)quinazolin-4-amine and (S)-5-((1-(dimethylamino)propan-2-yl)oxy)-7-(1-methyl-1H-pyrazol-4-yl)-N-(quinolin-6-yl)quinazolin-4-amine]
< 10 nM	< 10 nM	≤ 10 nM			CO[C@@H]1CCN(c2cc3ncnc(Nc4ccc5ncccc5c4F)c3c(O[C@H](C)CN(C)C)n2)C1 [Example 76, 5—(((R)-1-(dimethylamino)propan-2-yl)oxy)-N-(5-fluoroquinolin-6-yl)-7-((R)-3-methoxypyrrolidin-1-yl)pyrido[4,3-d]pyrimidin-4-amine]
		≤ 10 nM	< 10 nM	< 10 nM	CO[C@H]1CCN(c2cc(O[C@H](C)C3COC3)c3c(Nc4ccc5ncccc5c4F)ncnc3c2)C1 (single isomer, unassigned) [Example 85b, N-(5-fluoroquinolin-6-yl)-7-((S)-3-methoxypyrrolidin-1-yl)-5-((R)-1-(oxetan-3-yl)ethoxy)quinazolin-4-amine or N-(5-fluoroquinolin-6-yl)-7-((R)-3-methoxypyrrolidin-1-yl)-5-((R)-1-(oxetan-3-yl)ethoxy)quinazolin-4-amine]
10.1 to 50 nM	< 10 nM	≤ 10 nM			[2H]c1c(-c2cc(O[C@H](C)CN(C)C)c3c(Nc4ccc5ncccc5c4F)ncnc3c2)cnn1C [Example 159, (R)-5-((1-(dimethylamino)propan-2-yl)oxy)-N-(5-fluoroquinolin-6-yl)-7-(1-methyl-1H-pyrazol-4-yl-5-d)quinazolin-4-amine]
		10.1 to 50 nM	< 10 nM	< 10 nM	CN1CC[C@H](Oc2cc(-c3cnn(C)c3)cc3ncnc(Nc4ccc5ncccc5c4F)c23)[C@@H](F)C1 (single isomer, unassigned) [Example 144, 5-(((3S,4S)-3-fluoro-1-methylpiperidin-4-yl)oxy)-N-(5-fluoroquinolin-6-yl)-7-(1-methyl-1H-pyrazol-4-yl)quinazolin-4-amine or 5-(((3R,4R)-3-fluoro-1-methylpiperidin-4-yl)oxy)-N-(5-fluoroquinolin-6-yl)-7-(1-methyl-1H-pyrazol-4-yl)quinazolin-4-amine]
< 10 nM	< 10 nM	≤ 10 nM			COC1CCN(c2cc(O[C@H](C)CN(C)C)c3c(Nc4ccc5ncccc5c4F)ncnc3c2)C1 (mixture of isomers) [Example 86, 5—(((R)-1-(dimethylamino)propan-2-yl)oxy)-N-(5-fluoroquinolin-6-yl)-7-((R)-3-methoxypyrrolidin-1-yl)quinazolin-4-amine and 5-(((R)-1-(dimethylamino)propan-2-yl)oxy)-N-(5-fluoroquinolin-6-yl)-7-((S)-3-methoxypyrrolidin-1-yl)quinazolin-4-amine]
10.1 to 50 nM	< 10 nM	≤ 10 nM			C[C@H](CN(C)C)Oc1cc(N2CCOC(C(F)F)C2)cc2ncnc(Nc3ccc4ncccc4c3F)c12 (mixture of isomers) [Example 98, 7—((S)-2-(difluoromethyl)morpholino)-5-(((R)-1-(dimethylamino)propan-2-yl)oxy)-N-(5-fluoroquinolin-6-yl) and 7-((R)-2-(difluoromethyl)morpholino)-5-(((R)-1-(dimethylamino)propan-2-yl)oxy)-N-(5-fluoroquinolin-6-yl)quinazolin-4-amine]
< 10 nM	< 10 nM	≤ 10 nM			COc1cc(O[C@H](C)C2COC2)c2c(Nc3ccc4ncccc4c3F)ncnc2c1 [Example 56, (R)—N-(5-fluoroquinolin-6-yl)-7-methoxy-5-(1-(oxetan-3-yl)ethoxy)quinazolin-4-amine]
< 10 nM	< 10 nM	≤ 10 nM			C[C@@H](Oc1cc(-c2cnn(C)c2)cc2ncnc(Nc3ccc4ncc(F)cc4c3)c12)C1COC1 [Example 3, (R)—N-(3-fluoroquinolin-6-yl)-7-(1-methyl-1H-pyrazol-4-yl)-5-(1-(oxetan-3-yl)ethoxy)quinazolin-4-amine]
		≤ 10 nM	< 10 nM	< 10 nM	CO[C@H]1CCN(c2cc(O[C@H](C)CN(C)C)c3c(Nc4ccc5ncccc5c4F)ncnc3c2)C1 (single isomer, unassigned) [Example 87b, 5-(((R)-1-(dimethylamino)propan-2-yl)oxy)-N-(5-fluoroquinolin-6-yl)-7-((S)-3-methoxypyrrolidin-1-yl)quinazolin-4-amine or 5-(((R)-1-(dimethylamino)propan-2-yl)oxy)-N-(5-fluoroquinolin-6-yl)-7-((R)-3-methoxypyrrolidin-1-yl)quinazolin-4-amine]
< 10 nM	< 10 nM	≤ 10 nM			CN1CCC(Oc2cc(-c3cnn(C)c3)cc3ncnc(Nc4ccc5ncccc5c4F)c23)CC1 [Example 50, N-(5-fluoroquinolin-6-yl)-7-(1-methyl-1H-pyrazol-4-yl)-5-((1-methylpiperidin-4-yl)oxy)quinazolin-4-amine]
< 10 nM	< 10 nM	≤ 10 nM			COC1CCN(c2cc(O[C@H](C)C3COC3)c3c(Nc4ccc5ncccc5c4F)ncnc3c2)C1 (mixture of isomers) [Example 84, N-(5-fluoroquinolin-6-yl)-7-((R)-3-methoxypyrrolidin-1-yl)-5-((R)-1-(oxetan-3-yl)ethoxy)quinazolin-4-amine and N-(5-fluoroquinolin-6-yl)-7-((S)-3-methoxypyrrolidin-1-yl)-5-((R)-1-(oxetan-3-yl)ethoxy)quinazolin-4-amine]
< 10 nM	< 10 nM	≤ 10 nM			C[C@@H](Oc1cc(N2CC3CC(C2)O3)cc2ncnc(Nc3ccc4ncccc4c3F)c12)C1COC1 [Example 59, 7-(6-oxa-3-azabicyclo[3.1.1]heptan-3-yl)-N-(5-fluoroquinolin-6-yl)-5-((R)-1-(oxetan-3-yl)ethoxy)quinazolin-4-amine]
10.1 to 50 nM	10.1 to 50 nM	10.1 to 50 nM			CNC[C@@H](C)Oc1cc(-c2cnn(C)c2)cc2ncnc(Nc3ccc4ncccc4c3F)c12 [Example 100, (R)—N-(5-fluoroquinolin-6-yl)-7-(1-methyl-1H-pyrazol-4-yl)-5-((1-(methylamino)propan-2-yl)oxy)quinazolin-4-amine]

SMILES	IC50 (EGFR L858R)	IC50 (EGFR (d746-750))	IC50 [1]	IC50 (EGFR L858R; [2])	IC50 (EGFR (d746-750); [2])
C[C@@H](Oc1cc(-c2cnn(C)c2)cc2ncnc(Nc3ccc4ncccc4c3F)c12)C1COC1 [Example 46, (R)—N-(5-fluoroquinolin-6-yl)-7-(1-methyl-1H-pyrazol-4-yl)-5-(1-(oxetan-3-yl)ethoxy)quinazolin-4-amine]	< 10 nM	< 10 nM	≤ 10 nM		
C[C@@H](Oc1cc(-c2cnn(C)c2)cc2ncnc(Nc3ccc4ncccc4c3F)c12)[C@@H]1COCCN1C (single isomer, unassigned) [Example 125]			10.1 to 50 nM	< 10 nM	< 10 nM
